Assays:
[1] = biological target: MAGL (Mus musculus (Mouse), UniProt O35678); assay: Mouse brain proteomes from inhibitor treated mice (oral gavage, sacrificed 4 h after administration, ABPP analysis); conditions: 5 mg/kg oral gavage
Experimental: (§1) Preparation of Mouse Brain Proteomes from Inhibitor Treated Mice.
(§2) Inhibitors were administered to wild-type C57Bl/6J by oral gavage in a vehicle of polyethylene glycol.

[2] = biological target: FAAH (Mus musculus (Mouse), UniProt O08914); assay: Mouse brain proteomes from inhibitor treated mice (oral gavage, sacrificed 4 h after administration, ABPP analysis), FAAH; conditions: 5 mg/kg oral gavage
Sequence of FAAH (O08914 whole entry): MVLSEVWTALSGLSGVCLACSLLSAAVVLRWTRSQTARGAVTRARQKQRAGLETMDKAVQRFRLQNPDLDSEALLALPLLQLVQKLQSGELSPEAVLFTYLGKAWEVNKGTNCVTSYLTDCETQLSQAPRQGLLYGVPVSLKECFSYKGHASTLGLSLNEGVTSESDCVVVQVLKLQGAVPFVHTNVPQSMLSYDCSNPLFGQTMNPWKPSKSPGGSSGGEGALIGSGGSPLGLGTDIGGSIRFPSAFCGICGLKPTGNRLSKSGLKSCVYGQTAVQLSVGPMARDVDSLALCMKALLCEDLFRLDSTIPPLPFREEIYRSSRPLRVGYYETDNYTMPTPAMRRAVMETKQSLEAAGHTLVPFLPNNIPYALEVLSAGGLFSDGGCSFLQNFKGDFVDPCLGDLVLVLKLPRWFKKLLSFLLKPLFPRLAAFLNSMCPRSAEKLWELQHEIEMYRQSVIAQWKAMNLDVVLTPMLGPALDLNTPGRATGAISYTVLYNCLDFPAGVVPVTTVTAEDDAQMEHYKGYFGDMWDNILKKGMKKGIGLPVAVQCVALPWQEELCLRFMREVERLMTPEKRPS
Experimental: as §1, §2

Sequence of MAGL (O35678 whole entry): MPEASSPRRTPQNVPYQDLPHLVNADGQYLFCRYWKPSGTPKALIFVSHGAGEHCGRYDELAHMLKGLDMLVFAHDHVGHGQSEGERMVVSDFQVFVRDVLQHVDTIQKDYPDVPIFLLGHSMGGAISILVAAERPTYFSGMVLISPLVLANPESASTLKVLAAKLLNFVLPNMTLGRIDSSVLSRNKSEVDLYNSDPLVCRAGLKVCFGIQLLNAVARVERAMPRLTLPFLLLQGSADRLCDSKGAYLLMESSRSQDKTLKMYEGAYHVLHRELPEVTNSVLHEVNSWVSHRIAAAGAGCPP

SMILES | MAGL % inh. 5 mg/kg (mouse) [1] | FAAH % inh. 5 mg/kg (mouse) [2]
O=C(O)c1ccn(C(=O)N2CC3CN(Cc4cc(Cl)cc(C(F)(F)F)c4)CC3C2)n1 (centres unmarked) [Example 124, 1-(5-(3-chloro-5-(trifluoromethyl)benzyl)octahydro-pyrrolo[3,4-c]pyrrole-2-carbonyl)-1H-pyrazole-3-carboxylic acid] | D (% inhibition is greater than or equal to 0% and less than 25%) | C (% inhibition is greater than or equal to 25% and less than 50%)
O=C(O)c1ccn(C(=O)N2CCN(Cc3ccc(C(F)(F)F)cc3N3CC4COCC4C3)CC2)n1 (centres unmarked) [Example 106, 1-(4-(2-(tetrahydro-1H-furo[3,4-c]pyrrol-5(3H)-yl)-4-(trifluoromethyl)benzyl)piperazine-1-carbonyl)-1H-pyrazole-3-carboxylic acid] | D (% inhibition is greater than or equal to 0% and less than 25%) | D (% inhibition is greater than or equal to 0% and less than 25%)
O=C(O)c1ccn(C(=O)N2CCC3(CCCN3Cc3cc4ccc(C(F)(F)F)cc4s3)CC2)n1 [Example 185, 1-(1-((6-(trifluoromethyl)-benzo[b]thiophen-2-yl)methyl)-1,8-diazaspiro[4.5]-decane-8-carbonyl)-1H-pyrazole-3-carboxylic acid] | D (% inhibition is greater than or equal to 0% and less than 25%) | D (% inhibition is greater than or equal to 0% and less than 25%)
O=C(O)c1nn(C(=O)N2CC3CN(Cc4ccc(N5CCCC5)cc4C(F)(F)F)CC3C2)cc1Cl (centres unmarked) [Example 140, 4-chloro-1-(5-(4-(pyrrolidin-1-yl)-2-(trifluoromethyl)benzyl)octahydro-pyrrolo[3,4-c]pyrrole-2-carbonyl)-1H-pyrazole-3-carboxylic acid] | D (% inhibition is greater than or equal to 0% and less than 25%) | D (% inhibition is greater than or equal to 0% and less than 25%)
O=C(O)c1ccn(C(=O)N2CCN(Cc3ccc(C(F)(F)F)c(N4C5CCC4COC5)c3)CC2)n1 [Example 40, 1-(4-(3-(3-oxa-8-azabicyclo[3.2.1]octan-8-yl)-4-(trifluoromethyl)benzyl)piperazine-1-carbonyl)-1H-pyrazole-3-carboxylic acid] | D (% inhibition is greater than or equal to 0% and less than 25%) | D (% inhibition is greater than or equal to 0% and less than 25%)
O=C(O)c1ccn(C(=O)N2CCN(Cc3ccc(C(F)(F)F)c(-c4nccs4)c3)CC2)n1 [Example 8, 1-(4-(3-(Thiazol-2-yl)-4-(trifluoromethyl)benzyl)piperazine-1-carbonyl)-1H-pyrazole-3-carboxylic Acid] | D (% inhibition is greater than or equal to 0% and less than 25%) | D (% inhibition is greater than or equal to 0% and less than 25%)
Cc1c(CN2CCN(C(=O)n3ccc(C(=O)O)n3)CC2)[nH]c2ccc(Cl)cc12 [Example 188, 1-(4-((5-chloro-3-methyl-1H-indol-2-yl)methyl)piperazine-1-carbonyl)-1H-pyrazole-3-carboxylic acid] | D (% inhibition is greater than or equal to 0% and less than 25%) | D (% inhibition is greater than or equal to 0% and less than 25%)

Source: US11655217B2, “Pyrazole MAGL inhibitors” (H. Lundbeck A/S, priority 2017, dated 2023)
